Test [1] has as its target T1, 5-hydroxytryptamine receptor 1A (Rattus norvegicus, UniProt P19327).
T1 sequence (P19327 whole entry): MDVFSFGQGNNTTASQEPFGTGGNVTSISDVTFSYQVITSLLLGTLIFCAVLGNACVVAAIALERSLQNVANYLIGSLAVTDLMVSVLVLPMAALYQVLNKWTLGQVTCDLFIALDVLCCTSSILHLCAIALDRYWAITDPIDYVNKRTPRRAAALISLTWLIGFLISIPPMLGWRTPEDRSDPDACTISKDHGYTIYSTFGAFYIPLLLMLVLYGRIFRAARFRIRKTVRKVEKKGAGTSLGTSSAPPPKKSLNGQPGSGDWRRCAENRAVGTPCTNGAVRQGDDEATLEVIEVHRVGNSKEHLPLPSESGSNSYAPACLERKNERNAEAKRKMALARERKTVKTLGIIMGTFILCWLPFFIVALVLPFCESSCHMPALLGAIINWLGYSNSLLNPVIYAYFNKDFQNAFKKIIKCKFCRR
As to the kind of experiment: In vitro binding affinity towards 5-hydroxytryptamine 1A receptor was determined using [3H]8-OH-DPAT as radioligand in rat cerebral cortex membranes; […]. The class given is cell membranes.

Test [2] addresses T1, 5-hydroxytryptamine receptor 1A. As to the kind of experiment: In vitro binding affinity towards 5-hydroxytryptamine 1A receptor was determined using [3H]8-OH-DPAT as radioligand in rat cerebral cortex membranes. The class given is cell membranes, Membrane.

What is called Ki is a dissociation constant, usually derived from enzyme kinetics or from competition with a known ligand. A higher Ki goes with weaker binding. With `c1ccc(C(c2ccccc2)(c2ccccc2)n2cnc3c(N4CCNCC4)cccc32)cc1`, the Ki entry in test [1] is recorded as “Not Active”.

`O=C1C2CCCN2C(=O)N1CCCCN1CCN(c2cccc3[nH]cnc23)CC1` (centres undefined) came in with an inhibitory constant (Ki) in test [2] of 1.21 nM. That is a single-digit nanomolar value. Still for that read-out and setting: under `CN1CCN(c2cccc3[nH]cnc23)CC1` stands 4.72 nM.

With `CN1CCN(c2cccc3c2ncn3C(c2ccccc2)(c2ccccc2)c2ccccc2)CC1`, the Ki entry in test [1] is recorded as “Not Active”.

Values taken from ChEMBL document CHEMBL1131837, “Synthesis of new (benzimidazolyl)piperazines with affinity for the 5-HT1A receptor via Pd(0) amination of bromobenzimidazoles” (Bioorg Med Chem Lett, 1999).
